Results as given in the NIST ThermoML archive (doi:10.1021/je060411g).
Numbers after ± are expanded uncertainties.

Columns and labels:
[1] = Glass
[2] = molar heat capacity at constant pressure; conditions: 101.33 kPa

SMILES: CC(C)CCO [3-methylbutan-1-ol]
- Glass transition temperature [1]: -155 ± 3 °C
- molar heat capacity at constant pressure ([2]; 79.29 K, Glass): 64.16 ± 1.6 J/K/mol
- molar heat capacity at constant pressure ([2]; 79.93 K, Glass): 64.23 ± 1.6 J/K/mol
- molar heat capacity at constant pressure ([2]; 81.22 K, Glass): 65.13 ± 1.6 J/K/mol
- molar heat capacity at constant pressure ([2]; 83.16 K, Glass): 66.6 ± 1.6 J/K/mol
- molar heat capacity at constant pressure ([2]; 85.07 K, Glass): 67.98 ± 1.7 J/K/mol
- molar heat capacity at constant pressure ([2]; 86.97 K, Glass): 69.22 ± 1.7 J/K/mol
- molar heat capacity at constant pressure ([2]; 88.88 K, Glass): 70.53 ± 1.7 J/K/mol
- molar heat capacity at constant pressure ([2]; 90.79 K, Glass): 71.96 ± 2.1 J/K/mol
- molar heat capacity at constant pressure ([2]; 92.71 K, Glass): 73.36 ± 2.1 J/K/mol
- molar heat capacity at constant pressure ([2]; 94.62 K, Glass): 74.71 ± 2.2 J/K/mol
- molar heat capacity at constant pressure ([2]; 96.54 K, Glass): 76.12 ± 2.2 J/K/mol
- molar heat capacity at constant pressure ([2]; 98.47 K, Glass): 77.7 ± 2.2 J/K/mol
- molar heat capacity at constant pressure ([2]; 100.4 K, Glass): 79.43 ± 2.2 J/K/mol
- molar heat capacity at constant pressure ([2]; 102.33 K, Glass): 80.27 ± 2.3 J/K/mol
- molar heat capacity at constant pressure ([2]; 104.26 K, Glass): 81.54 ± 2.3 J/K/mol
- molar heat capacity at constant pressure ([2]; 106.19 K, Glass): 83.08 ± 2.3 J/K/mol
- molar heat capacity at constant pressure ([2]; 108.13 K, Glass): 84.68 ± 2.3 J/K/mol
- molar heat capacity at constant pressure ([2]; 110.07 K, Glass): 86.19 ± 2.4 J/K/mol
- molar heat capacity at constant pressure ([2]; 112.01 K, Glass): 87.96 ± 2.4 J/K/mol
- molar heat capacity at constant pressure ([2]; 113.94 K, Glass): 90.43 ± 2.4 J/K/mol
- molar heat capacity at constant pressure ([2]; 115.88 K, Glass): 94.62 ± 2.5 J/K/mol
- molar heat capacity at constant pressure ([2]; 123.04 K, Liquid): 144.09 ± 3.5 J/K/mol
- molar heat capacity at constant pressure ([2]; 124.93 K, Liquid): 144.11 ± 3.5 J/K/mol
- molar heat capacity at constant pressure ([2]; 126.89 K, Liquid): 144.29 ± 3.5 J/K/mol
- molar heat capacity at constant pressure ([2]; 128.85 K, Liquid): 144.62 ± 3.5 J/K/mol
- molar heat capacity at constant pressure ([2]; 130.82 K, Liquid): 144.96 ± 3.5 J/K/mol
- molar heat capacity at constant pressure ([2]; 132.79 K, Liquid): 145.22 ± 3.5 J/K/mol
- molar heat capacity at constant pressure ([2]; 134.76 K, Liquid): 145.47 ± 3.5 J/K/mol
- molar heat capacity at constant pressure ([2]; 136.73 K, Liquid): 145.74 ± 3.5 J/K/mol
- molar heat capacity at constant pressure ([2]; 138.7 K, Liquid): 146.13 ± 3.5 J/K/mol
- molar heat capacity at constant pressure ([2]; 140.67 K, Liquid): 146.33 ± 3.5 J/K/mol
- molar heat capacity at constant pressure ([2]; 142.65 K, Liquid): 146.61 ± 3.5 J/K/mol
- molar heat capacity at constant pressure ([2]; 144.62 K, Liquid): 146.82 ± 3.5 J/K/mol
- molar heat capacity at constant pressure ([2]; 146.59 K, Liquid): 147.14 ± 3.5 J/K/mol
- molar heat capacity at constant pressure ([2]; 148.57 K, Liquid): 147.5 ± 3.5 J/K/mol
- molar heat capacity at constant pressure ([2]; 150.54 K, Liquid): 147.86 ± 3.5 J/K/mol
- molar heat capacity at constant pressure ([2]; 152.52 K, Liquid): 148.08 ± 3.6 J/K/mol
- molar heat capacity at constant pressure ([2]; 154.49 K, Liquid): 148.41 ± 3.6 J/K/mol
- molar heat capacity at constant pressure ([2]; 156.46 K, Liquid): 148.76 ± 3.6 J/K/mol
- molar heat capacity at constant pressure ([2]; 158.43 K, Liquid): 148.95 ± 3.6 J/K/mol
- molar heat capacity at constant pressure ([2]; 160.41 K, Liquid): 149.4 ± 3.6 J/K/mol
- molar heat capacity at constant pressure ([2]; 162.38 K, Liquid): 149.76 ± 3.6 J/K/mol
- molar heat capacity at constant pressure ([2]; 164.35 K, Liquid): 149.96 ± 3.6 J/K/mol
- molar heat capacity at constant pressure ([2]; 166.32 K, Liquid): 150.38 ± 3.6 J/K/mol
- molar heat capacity at constant pressure ([2]; 168.29 K, Liquid): 150.9 ± 3.6 J/K/mol
- molar heat capacity at constant pressure ([2]; 170.27 K, Liquid): 151.21 ± 3.6 J/K/mol
- molar heat capacity at constant pressure ([2]; 172.24 K, Liquid): 151.76 ± 3.6 J/K/mol
- molar heat capacity at constant pressure ([2]; 174.21 K, Liquid): 152.03 ± 3.6 J/K/mol
- molar heat capacity at constant pressure ([2]; 176.19 K, Liquid): 152.42 ± 3.6 J/K/mol
- molar heat capacity at constant pressure ([2]; 178.16 K, Liquid): 152.92 ± 3.6 J/K/mol
- molar heat capacity at constant pressure ([2]; 180.14 K, Liquid): 153.49 ± 3.7 J/K/mol
- molar heat capacity at constant pressure ([2]; 182.11 K, Liquid): 153.84 ± 3.7 J/K/mol
- molar heat capacity at constant pressure ([2]; 184.09 K, Liquid): 154.42 ± 3.7 J/K/mol
- molar heat capacity at constant pressure ([2]; 186.07 K, Liquid): 154.93 ± 3.7 J/K/mol
- molar heat capacity at constant pressure ([2]; 188.05 K, Liquid): 155.51 ± 3.7 J/K/mol
- molar heat capacity at constant pressure ([2]; 190.03 K, Liquid): 156.14 ± 3.7 J/K/mol
- molar heat capacity at constant pressure ([2]; 192.01 K, Liquid): 156.62 ± 3.7 J/K/mol
- molar heat capacity at constant pressure ([2]; 193.99 K, Liquid): 157.15 ± 3.7 J/K/mol
- molar heat capacity at constant pressure ([2]; 195.96 K, Liquid): 157.72 ± 3.8 J/K/mol
- molar heat capacity at constant pressure ([2]; 197.94 K, Liquid): 158.12 ± 3.8 J/K/mol
- molar heat capacity at constant pressure ([2]; 199.92 K, Liquid): 158.79 ± 3.8 J/K/mol
- molar heat capacity at constant pressure ([2]; 201.91 K, Liquid): 159.5 ± 3.8 J/K/mol
